“Also recorded” adds a separate entry of the source.
Experiments:
[1] = test system: J20 mice; assay: NOR, preventive treatment of pre-symptomatic J20 mice; format: in vivo, mouse
Procedure: FIG. 22: Novel object recognition behavioral assay to assess episodic memory in J20 mice. Mice were treated with vehicle (WT and J20) or 50 mg/kg VX-765 (J20) at 2 months of age for 1 month (3 injections per week×4 weeks=12 injections). (a) Schematic representation of the manner in which the studies were carried out. (b) Discrimination index indicates the number of touches of the novel object minus the number of touches of the familiar object divided by the number of total touches for both objects. Two-way ANOVA (F(2,240)=75.62, p<0.0001) with Dunnett's compared to the J20+vehicle. * p<0.05, **** p<0.0001 (c) % mice impaired in NOR in each group of mice tested at the different time points.
Studies are done on 8 (pre-symptomatic) week old J20 and littermate WT controls injected with 50 mg/Kg VX-765 or vehicle. The 8 week old mice are injected for 4 weeks (3 injections per week) and monitored for memory deficits at 16 weeks of age and every 4 weeks thereafter until the mice reach 8 months of age. VX-765 delays the onset of cognitive deficits by at least 5 months in the J20 mouse.
To determine if VX-765 can delay the appearance of AD-like cognitive deficits and pathology in the J20 mice, J20 mice were injected 3 times per week for 4 weeks starting at 2 months of age. We started NOR tests at 4 months of age, after 1 month without drug, and retested every month thereafter until 8 months of age (FIG. 3). […] At 8 months of age, only 1 of 3 mice have NOR deficit resulting in an averaged normal behavior. Since we sacrificed 2 mice per group at 4, 5, and 6 months and 3 mice per group at 7 and 8 months, note that the results of the older groups need more experimental data for solid conclusions.
We directly tested whether pre-symptomatic inhibition of inflammation in a mouse genetic model of Alzheimer disease can stem the progression of memory and behavioral deficits, and Alzheimer disease-like pathology. The J20 amyloid precursor protein Swedish/Indiana mutant mouse was treated at 2 months of age for a one month period with 50 mg/Kg Caspase-1 inhibitor VX-765 (FIG. 22a).

[2] = test system: J20 mice; assay: Synaptophysin immunostaining and synaptic gene mRNA, treated symptomatic J20 mice; format: in vivo, mouse; conditions: hippocampus, immunohistochemistry, 50 mg/kg, 8 month old
Text: FIG. 12: VX-765 reverses loss of synaptophysin immunohistological staining in J20 mice. (a) Immunohistological micrographs from pre-treated 5 month old J20 and 8 month old vehicle or VX-765 treated WT or J20 mouse hippocampus and cortex. (b) Quantitative analysis comparing synaptophysin immunostaining density between WT+Vehicle (n=4), J20+Vehicle (n=4), and J20+VX-765 (n=4) in the hippocampus (F(2,9)=7.974, p=0.0102, ANOVA, Tukey's post-hoc, * p<0.05) and cortex.
To assess AD-like pathology, immunohistochemical analyses were performed to detect amyloid deposition (anti-AβF25276)^5,6, microglial (Iba1) activation^7, astrogliosis (GFAP), synaptophysin protein levels on coronal brain sections. Multiplex MSD ELISA was used to assess Aβ levels and 38,40, and 42 subtypes, and II-1β brain levels. RT-PCR was used to assess levels of human APP^Sw/Ind.

[3] = test system: CNS primary human neurons (HPN); assay: MTT assay in primary human neurons; format: cell-based; conditions: 25, 50, 100, or 200 μM for 72 hours
Procedure: FIG. 13: VX-765 protects CNS primary human neurons (HPN) against APP- or serum deprivation-mediated neuritic beading. (a) MTT assay with increasing dose of VX-765. (b) Fluorescent micrographs showing homogeneous distribution of EGFP in normal neurons and neuritic beading in APP-transfected neurons. (c) Percentage beading in APP-transfected or serum-deprived neurons treated 1 h before and continuously with stressor (Pre-treatment) or 48 h after stressor (post-beading treatment) with 25 or 50 μM VX-765 or with 5 μM Z-YVAD-fmk Casp1 peptide inhibitor. […] (d-e) HPN secreted or cellular Aβ42/total Aβ38+40+42 (d) (F(3,4)=12.73, p=0.0163, ANOVA, Dunnett's post-hoc compared to Serum+DMSO, *p<0.05), and (e) levels of secreted II-1β, IFN-γ, TNF-α, and II-6 from untreated (+S), serum deprived (−S), or serum-deprived human neurons treated with 25 or 50 μM VX-765.
To determine if VX-765 can protect human neurons against neurodegeneration, VX-765 was assessed in primary human fetal CNS neuron cultures. Treatment of HPN with 25, 50, 100, or 200 μM VX-765 for 72 hours was not toxic (FIG. 13a). […] HPN were pre-treated with VX-765 for 1 h before APP transfection and treatment continued thereafter. […] To assess if neuritic beading was reversible, VX-765 was administered 48 hours after APP^WT transfection or serum deprivation.

`CCO[C@@H]1OC(=O)C[C@@H]1NC(=O)[C@@H]1CCCN1C(=O)[C@@H](NC(=O)c1ccc(N)c(Cl)c1)C(C)(C)C` [VX-765, (S)-1-((S)-2-{[1-(4-amino-3-chloro-phenyl)-methanoyl]-amino}-3,3-dimethyl-butanoyl)-pyrrolidine-2-carboxylic acid ((2R,3S)-2-ethoxy-5-oxo-tetrahydro-furan-3-yl)-amide] was tested, and the “delay of the onset of cognitive deficits” value ([1]; 50 mg/Kg, 3 injections per week for 4 weeks from 8 weeks of age) was “at least 5 months”, the NOR performance ([1]; 4, 5 and 6 months of age (1, 2, 3 month washout)) was “perform normally on NOR” and the “mice that developed NOR deficits” value ([1]; 7 months of age (4 month washout)) was 3 out of 6. For the same molecule, the “mice with NOR deficit” value ([1]; 8 months of age) was 1 of 3, the NOR discrimination index ([1]; after 16 and 20 week washout) was “lower performance although they are still performing better than vehicle-treated J20 mice” and the NOR discrimination index ([1]; average, each washout time point (4 to 20 weeks)) was “perform like the WT mice”. For the same molecule, the “percentage of mice impaired in NOR” value ([1]; each washout time point) was “does not differ significantly from vehicle-treated WT mice”, the synaptophysin levels [2] was “increased synaptophysin levels; also recorded: significantly increased and returned to normal levels” and the “toxicity (MTT assay)” value [3] was “not toxic”.
